Laboratory results taken from ChEMBL document CHEMBL3813667, “Triterpene sapogenin-polyarginine conjugates exhibit promising antibacterial activity against Gram-positive strains” (Bioorg Med Chem, 2016).
In brackets after ≈: the same amount, converted by molar mass. Where a SMILES comes first, the peptide text is derived from it.

Experiments:
[1] = Therapeutic index, ratio of HC50 for human erythrocytes to MIC for Bacillus subtilis ATCC 6633; settings: read-out: TI
[2] = Therapeutic index, ratio of HC50 for human erythrocytes to MIC for Staphylococcus aureus ATCC 25923; settings: read-out: TI
Escherichia coli = test: Antibacterial activity against Escherichia coli ATCC 25922 after 16 hrs by broth microdilution method; format: functional; settings: ATCC 25922, 16 h
Staphylococcus aureus = test: Antibacterial activity against Staphylococcus aureus ATCC 25923 after 16 hrs by broth microdilution method; format: functional; settings: ATCC 25923, 16 h
[3] = Toxicity against human erythrocytes assessed as hemolysis after 1 hr by spectrophotometric analysis; format: cell-based, Erythrocyte
Bacillus spizizenii = test: Antibacterial activity against Bacillus subtilis ATCC 6633 after 16 hrs by broth microdilution method; format: functional; settings: ATCC 6633, 16 h
[4] = Solubility of the compound in water at 40 mg sonicated for 15 mins at 25 degC measured after 5 hrs; format: physicochemical

| MIC (Escherichia coli) [µM] | MIC (Staphylococcus aureus) [µM] | MIC (Bacillus spizizenii) [µM] | solubility at 5 h [4] [mg/mL] | Compound | selectivity ratio [1] | selectivity ratio [2] | HC50 at 1 h [3] [µM] |
| --- | --- | --- | --- | --- | --- | --- | --- |
| > 88 | 2.7 (≈ 3.83 µg/mL) | 2.7 (≈ 3.83 µg/mL) |  | C=C(C)[C@@H]1CC[C@]2(C(=O)O)CC[C@]3(C)[C@H](CC[C@@H]4[C@@]5(C)CC[C@H](OC(=O)CCc6cn(CC(=O)N[C@@H](CCCNC(=N)N)C(=O)N[C@@H](CCCNC(=N)N)C(=O)N[C@@H](CCCNC(=N)N)C(=O)N[C@@H](CCCNC(=N)N)C(=O)N[C@@H](CCCNC(=N)N)C(=O)O)nn6)C(C)(C)[C@@H]5CC[C@]43C)[C@@H]12 | 117 | 117 | 323 |
| > 1300 | > 1030 | > 1030 |  | N=C(N)NCCC[C@H](NC(=O)[C@H](CCCNC(=N)N)NC(=O)[C@@H](N)CCCNC(=N)N)C(=O)O (H-Arg-Arg-Arg-OH) |  |  |  |
| > 138 | 4.3 (≈ 3.91 µg/mL) | 4.3 (≈ 3.91 µg/mL) |  | C[C@H]1[C@H](C)CC[C@]2(C(=O)OCc3cn(CC(=O)N[C@@H](CCCNC(=N)N)C(=O)N[C@@H](CCCNC(=N)N)C(=O)O)nn3)CC[C@]3(C)C(=CC[C@@H]4[C@@]5(C)CC[C@H](O)C(C)(C)[C@@H]5CC[C@]43C)[C@H]12 | 11 | 11 | 49 |
| > 157 | 78.6 (≈ 62.4 µg/mL) | 19.6 (≈ 15.6 µg/mL) |  | C[C@H]1[C@H](C)CC[C@]2(C(=O)O)CC[C@]3(C)C(=CC[C@@H]4[C@@]5(C)CC[C@H](OC(=O)CCc6cn(CC(=O)N[C@@H](CCCNC(=N)N)C(=O)O)nn6)C(C)(C)[C@@H]5CC[C@]43C)[C@H]12 | 8 | 2 | 158 |
| > 66 | 4.1 (≈ 7.74 µg/mL) | 4.1 (≈ 7.74 µg/mL) |  | C=C(C)[C@@H]1CC[C@]2(C(=O)O)CC[C@]3(C)[C@H](CC[C@@H]4[C@@]5(C)CC[C@H](OC(=O)CCc6cn(CC(=O)N[C@@H](CCCNC(=N)N)C(=O)N[C@@H](CCCNC(=N)N)C(=O)N[C@@H](CCCNC(=N)N)C(=O)N[C@@H](CCCNC(=N)N)C(=O)N[C@@H](CCCNC(=N)N)C(=O)N[C@@H](CCCNC(=N)N)C(=O)N[C@@H](CCCNC(=N)N)C(=O)N[C@@H](CCCNC(=N)N)C(=O)O)nn6)C(C)(C)[C@@H]5CC[C@]43C)[C@@H]12 | > 103 | > 103 | > 424 |
| > 1100 | 137 (≈ 62.6 µg/mL) | 68 (≈ 31.1 µg/mL) |  | C[C@H]1[C@H](C)CC[C@]2(C(=O)O)CC[C@]3(C)C(=CC[C@@H]4[C@@]5(C)CC[C@H](O)C(C)(C)[C@@H]5CC[C@]43C)[C@H]12 [URSOLIC ACID] |  |  |  |
| > 88 | 5.5 (≈ 7.8 µg/mL) | 2.7 (≈ 3.83 µg/mL) |  | C[C@H]1[C@H](C)CCC2(C(=O)O)CC[C@]3(C)C(=CC[C@@H]4[C@@]5(C)CC[C@H](OC(=O)CCc6cn(CC(=O)N[C@@H](CCCNC(=N)N)C(=O)N[C@@H](CCCNC(=N)N)C(=O)N[C@@H](CCCNC(=N)N)C(=O)N[C@@H](CCCNC(=N)N)C(=O)N[C@@H](CCCNC(=N)N)C(=O)O)nn6)C(C)(C)[C@@H]5CC[C@]43C)[C@H]12 (single isomer, unassigned) |  |  |  |
| > 68 | 4.2 (≈ 7.75 µg/mL) | 4.2 (≈ 7.75 µg/mL) |  | C=C(C)[C@@H]1CC[C@]2(C(=O)OCc3cn(CC(=O)N[C@@H](CCCNC(=N)N)C(=O)N[C@@H](CCCNC(=N)N)C(=O)N[C@@H](CCCNC(=N)N)C(=O)N[C@@H](CCCNC(=N)N)C(=O)N[C@@H](CCCNC(=N)N)C(=O)N[C@@H](CCCNC(=N)N)C(=O)N[C@@H](CCCNC(=N)N)C(=O)N[C@@H](CCCNC(=N)N)C(=O)O)nn3)CC[C@]3(C)[C@H](CC[C@@H]4[C@@]5(C)CC[C@H](O)C(C)(C)[C@@H]5CC[C@]43C)[C@@H]12 |  |  |  |
| > 66 | 4.1 (≈ 7.74 µg/mL) | 4.1 (≈ 7.74 µg/mL) |  | C[C@H]1[C@H](C)CCC2(C(=O)O)CC[C@]3(C)C(=CC[C@@H]4[C@@]5(C)CC[C@H](OC(=O)CCc6cn(CC(=O)N[C@@H](CCCNC(=N)N)C(=O)N[C@@H](CCCNC(=N)N)C(=O)N[C@@H](CCCNC(=N)N)C(=O)N[C@@H](CCCNC(=N)N)C(=O)N[C@@H](CCCNC(=N)N)C(=O)N[C@@H](CCCNC(=N)N)C(=O)N[C@@H](CCCNC(=N)N)C(=O)N[C@@H](CCCNC(=N)N)C(=O)O)nn6)C(C)(C)[C@@H]5CC[C@]43C)[C@H]12 (single isomer, unassigned) | > 103 | > 103 | > 424 |
| > 1520 | > 1520 | > 1520 |  | NC(N)=NCCC[C@H](NC(=O)[C@@H](N)CCCN=C(N)N)C(=O)O (H-Arg-Arg-OH) |  |  |  |

The remaining lines, values behind:

| Compound | MIC (Escherichia coli) [µM] | MIC (Staphylococcus aureus) [µM] | MIC (Bacillus spizizenii) [µM] | solubility at 5 h [4] [mg/mL] | selectivity ratio [1] | selectivity ratio [2] | HC50 at 1 h [3] [µM] |
| --- | --- | --- | --- | --- | --- | --- | --- |
| C[C@H]1[C@H](C)CC[C@]2(C(=O)OCc3cn(CC(=O)N[C@@H](CCCNC(=N)N)C(=O)N[C@@H](CCCNC(=N)N)C(=O)N[C@@H](CCCNC(=N)N)C(=O)O)nn3)CC[C@]3(C)C(=CC[C@@H]4[C@@]5(C)CC[C@H](O)C(C)(C)[C@@H]5CC[C@]43C)[C@H]12 | 14.7 (≈ 15.6 µg/mL) | 3.7 (≈ 3.94 µg/mL) | 3.7 (≈ 3.94 µg/mL) |  | 8 | 8 | 29 |
| C[C@H]1[C@H](C)CC[C@]2(C(=O)OCc3cn(CC(=O)N[C@@H](CCCNC(=N)N)C(=O)N[C@@H](CCCNC(=N)N)C(=O)N[C@@H](CCCNC(=N)N)C(=O)N[C@@H](CCCNC(=N)N)C(=O)N[C@@H](CCCNC(=N)N)C(=O)O)nn3)CC[C@]3(C)C(=CC[C@@H]4[C@@]5(C)CC[C@H](O)C(C)(C)[C@@H]5CC[C@]43C)[C@H]12 | > 91 | 5.7 (≈ 7.85 µg/mL) | 2.8 (≈ 3.85 µg/mL) |  | 11 | 6 | 25 |
| C[C@H]1[C@H](C)CCC2(C(=O)O)CC[C@]3(C)C(=CC[C@@H]4[C@@]5(C)CC[C@H](OC(=O)CCc6cn(CC(=O)N[C@@H](CCCNC(=N)N)C(=O)N[C@@H](CCCNC(=N)N)C(=O)N[C@@H](CCCNC(=N)N)C(=O)O)nn6)C(C)(C)[C@@H]5CC[C@]43C)[C@H]12 (single isomer, unassigned) | > 113 | 7 (≈ 7.75 µg/mL) | 3.5 (≈ 3.87 µg/mL) |  | 102 | 51 | 360 |
| C=C(C)[C@@H]1CC[C@]2(C(=O)O)CC[C@]3(C)[C@H](CC[C@@H]4[C@@]5(C)CC[C@H](OC(=O)CCc6cn(CC(=O)N[C@@H](CCCNC(=N)N)C(=O)N[C@@H](CCCNC(=N)N)C(=O)O)nn6)C(C)(C)[C@@H]5CC[C@]43C)[C@@H]12 | > 131 | 8.2 (≈ 7.79 µg/mL) | 4.1 (≈ 3.9 µg/mL) |  | > 205 | > 103 | > 841 |
| N=C(N)NCCC[C@H](NC(=O)[C@H](CCCNC(=N)N)NC(=O)[C@H](CCCNC(=N)N)NC(=O)[C@H](CCCNC(=N)N)NC(=O)[C@H](CCCNC(=N)N)NC(=O)[C@H](CCCNC(=N)N)NC(=O)[C@H](CCCNC(=N)N)NC(=O)[C@@H](N)CCCNC(=N)N)C(=O)O | 197 (≈ 250 µg/mL) | 24.6 (≈ 31.2 µg/mL) | 12.3 (≈ 15.6 µg/mL) |  |  |  |  |
| C[C@H]1[C@H](C)CC[C@]2(C(=O)OCc3cn(CC(=O)N[C@@H](CCCNC(=N)N)C(=O)O)nn3)CC[C@]3(C)C(=CC[C@@H]4[C@@]5(C)CC[C@H](O)C(C)(C)[C@@H]5CC[C@]43C)[C@H]12 | > 166 | 10.4 (≈ 7.82 µg/mL) | 5.2 (≈ 3.91 µg/mL) |  | 16 | 8 | 83 |
| C[C@H]1[C@H](C)CC[C@]2(C(=O)OCc3cn(CC(=O)N[C@@H](CCCNC(=N)N)C(=O)N[C@@H](CCCNC(=N)N)C(=O)N[C@@H](CCCNC(=N)N)C(=O)N[C@@H](CCCNC(=N)N)C(=O)N[C@@H](CCCNC(=N)N)C(=O)N[C@@H](CCCNC(=N)N)C(=O)N[C@@H](CCCNC(=N)N)C(=O)N[C@@H](CCCNC(=N)N)C(=O)O)nn3)CC[C@]3(C)C(=CC[C@@H]4[C@@]5(C)CC[C@H](O)C(C)(C)[C@@H]5CC[C@]43C)[C@H]12 | > 68 | 4.2 (≈ 7.75 µg/mL) | 4.2 (≈ 7.75 µg/mL) |  | 10 | 10 | 41 |
| N=C(N)NCCC[C@H](N)C(=O)O [ARGININE] | > 2890 | > 2890 | > 2890 |  |  |  |  |
| C=C(C)[C@@H]1CC[C@]2(C(=O)O)CC[C@]3(C)[C@H](CC[C@@H]4[C@@]5(C)CC[C@H](OC(=O)CCc6cn(CC(=O)N[C@@H](CCCNC(=N)N)C(=O)O)nn6)C(C)(C)[C@@H]5CC[C@]43C)[C@@H]12 | > 157 | > 157 | 19.6 (≈ 15.6 µg/mL) |  | > 51 |  | > 1010 |
| C=C(C)[C@@H]1CC[C@]2(C(=O)OCc3cn(CC(=O)N[C@@H](CCCNC(=N)N)C(=O)O)nn3)CC[C@]3(C)[C@H](CC[C@@H]4[C@@]5(C)CC[C@H](O)C(C)(C)[C@@H]5CC[C@]43C)[C@@H]12 | > 166 | > 166 | 83 (≈ 62.4 µg/mL) | 1.3 (≈ 1.73 mM) | 5 |  | 397 |
| H-RRRRR-OH | > 627 | > 627 | 313 |  |  |  |  |
| C=C(C)[C@@H]1CC[C@]2(C(=O)OCc3cn(CC(=O)N[C@@H](CCCNC(=N)N)C(=O)N[C@@H](CCCNC(=N)N)C(=O)O)nn3)CC[C@]3(C)[C@H](CC[C@@H]4[C@@]5(C)CC[C@H](O)C(C)(C)[C@@H]5CC[C@]43C)[C@@H]12 | > 138 | 8.6 (≈ 7.81 µg/mL) | 4.3 (≈ 3.91 µg/mL) | 48 (≈ 52.9 mM) |  |  |  |
| C[C@H]1[C@H](C)CC[C@]2(C(=O)O)CC[C@]3(C)C(=CC[C@@H]4[C@@]5(C)CC[C@H](OC(=O)CCc6cn(CC(=O)N[C@@H](CCCNC(=N)N)C(=O)N[C@@H](CCCNC(=N)N)C(=O)O)nn6)C(C)(C)[C@@H]5CC[C@]43C)[C@H]12 | > 131 | 8.2 (≈ 7.79 µg/mL) | 4.1 (≈ 3.9 µg/mL) |  |  |  |  |
